{"source": "a melting point compilation (Tetko et al.; mined from patent text by program, amines drawn as free bases though some values may be those of a salt)", "data": [{"units": {"melting point": "°C"}, "values": [{"smiles": "CCOc1ccc(OCCOCCOC)c2c1C(=O)N(CSc1ccccc1)S2(=O)=O", "melting point": "73 to 75"}, {"smiles": "OCc1cccc(-c2cnc3cnc(-c4ccc(O)cc4)nc3c2)c1", "melting point": 232}, {"smiles": "COCCO[C@@H]1c2ccc3c(nc(C)n3C)c2O[C@H](c2ccccc2)[C@H]1OC(=O)COC", "melting point": 200}, {"smiles": "CC(C)CC(CS)C(=O)N[C@@H](C)C(=O)N[C@@H](CCCNC(=N)N)C(=O)O", "note": "(stereo partly drawn)", "melting point": "140 to 150"}, {"smiles": "CN(C)CC(O)COc1ccc(C=CC(=O)N2CCc3c([nH]c4ccccc34)C2c2ccc3c(c2)CCO3)cc1", "note": "(stereo not drawn)", "melting point": 138}, {"smiles": "Cc1nnc(C=O)n1-c1ccc(Cl)cc1C(=O)c1ccccc1", "melting point": "105 to 138"}, {"smiles": "COc1ccc2c(c1)C(=O)C(n1ccnc1)CO2", "note": "(stereo not drawn)", "melting point": "150 to 152"}, {"smiles": "Brc1ccc(-c2nc(COc3ccc(CCCn4ccnc4)cc3)co2)o1", "melting point": "115 to 116"}, {"smiles": "O=C1CCCc2nc(-c3ccccc3)ccc21", "melting point": "128 to 130"}, {"smiles": "CCCC(=O)NN=C(c1ccc(Cl)cc1)c1ccc(OC(F)F)cc1", "melting point": "114 to 125"}, {"smiles": "O=C(CCC(=O)N1CCC(c2ccc(Cl)cc2)CC1)c1ccc2c(c1)CNC2", "melting point": "133 to 134"}, {"smiles": "CCCCOn1nnc2ccc(C(O)c3ccccc3)cc21", "note": "(stereo not drawn)", "melting point": 89.2}, {"smiles": "CN(CCCCNC(=NCCSCc1csc(NC(=N)N)n1)NC#N)CCN(Cc1ccc(F)cc1)c1ccccn1", "melting point": 137}, {"smiles": "CC(=O)NS(=O)(=O)c1ccc(C2=C(c3ccc(F)c(Cl)c3)CCC2)cc1", "melting point": "127 to 129"}, {"smiles": "CC(n1cncn1)C(O)(COc1ccc(F)cc1)C(C)(C)C", "note": "(stereo not drawn)", "melting point": "85 to 100"}, {"smiles": "Cc1ccc(C#CC2(O)CN3CCC2CC3)nc1", "note": "(stereo not drawn)", "melting point": "176 to 180"}, {"smiles": "COC(=O)C(C(C)=O)=C(N)C(F)(F)F", "melting point": "63 to 65"}, {"smiles": "CCCC(Oc1ccccc1COc1ccc2oc(-c3nc(C(C)(C)C)cs3)cc2c1)C(=O)O", "note": "(stereo not drawn)", "melting point": "135 to 136"}, {"smiles": "COc1ccc(C(=O)Nc2ccccc2)cc1NC(=S)Nc1cc(C)cc(C)c1", "melting point": "203 to 205"}, {"smiles": "CC(C)C1=CC(C(C)C)(S(=O)(=O)n2c(C3(O)C=CC(=O)C=C3)cc3ccccc32)CC(C(C)C)=C1", "note": "(stereo not drawn)", "melting point": "55 to 57"}, {"smiles": "O=C(Nc1ccccc1)O[C@@H]1CN=C(c2ccccc2F)O[C@H]1c1ccccc1", "note": "(racemic)", "melting point": 128}, {"smiles": "CCS(=O)(=O)C(F)(F)c1nnc(OCC(=O)N(C)c2ccccc2)s1", "melting point": "103 to 104"}, {"smiles": "CO/C(=C\\C=C\\c1cc2ccccc2o1)C(=O)O", "melting point": 206}, {"smiles": "CC(=O)OCCc1cc2c(s1)SCCC1CC(=O)NN=C21", "note": "(stereo not drawn)", "melting point": "106 to 108"}, {"smiles": "Cc1ccc2cccc(OCc3c(Cl)ccc(S(=O)(=O)N(CCCCN(C(=O)OC(C)(C)C)C(=O)OC(C)(C)C)C(C)(C)C)c3Cl)c2n1", "melting point": "172 to 175"}, {"smiles": "N#CCCNC(=O)c1cccc(-c2cccc3c2CN(Cc2cccc(C(F)(F)F)c2)C3=O)c1", "melting point": "191 to 192"}, {"smiles": "CC(C)[C@H](NC(=O)OCc1ccccn1)C(=O)N[C@@H](Cc1ccccc1)C[C@H](OC=O)[C@H](Cc1ccccc1)NC(=O)[C@@H](NC(=O)OCc1ccccn1)C(C)C", "melting point": "206 to 207"}, {"smiles": "CC1(C)CC2(CC(C)(C)c3ccc(Oc4ccc(N)cc4)cc32)c2cc(Oc3ccc(N)cc3)ccc21", "melting point": "214 to 215"}, {"smiles": "Cc1cccc(-c2nc(C(C)C)[nH]c2-c2ccc(F)c(-c3cnn(C(C)C)c3)c2)n1", "melting point": "84 to 85"}, {"smiles": "O=CNCc1c[nH]c(=S)n1[C@H]1CCc2c(F)cc(F)cc2C1", "melting point": "245 to 246"}, {"smiles": "CCCCNN1C2=C(C=C(C)C1C(=O)OCC)CCC(=O)N2", "note": "(stereo not drawn)", "melting point": "186 to 188"}, {"smiles": "Cc1ccc(C(=O)Nc2ccc(N3CCN(Cc4cccc(C#N)c4)CC3)cc2)c(-c2ccc(C(C)C)cc2)c1", "melting point": "167 to 169"}, {"smiles": "C=C(Cn1ccnc1)c1ccccc1OCc1ccc(-c2ccccc2)cc1", "melting point": "90 to 92"}, {"smiles": "CC(C)(C)OC(=O)C(Cc1ccc(Cl)cc1)N=C(c1ccccc1)c1ccccc1", "note": "(stereo not drawn)", "melting point": "102 to 103"}, {"smiles": "CCOC(=O)C1C(C)(O)CCC(O)C1(C)C", "note": "(stereo not drawn)", "melting point": "92 to 94"}, {"smiles": "CCn1c(=O)c2c(nc(/C=C/c3ccc(OCc4ccccc4)cc3)n2C)n(CC)c1=O", "melting point": 185}, {"smiles": "COc1cc2c(cc1OC)C(c1ccccc1)N1C(=O)CNC(=O)C1C2", "note": "(stereo not drawn)", "melting point": "265 to 267"}, {"smiles": "CC(C)Oc1cc(CCCOc2nn(Cc3ccccc3)cc2CC(=O)O)n(Cc2ccc(F)cc2Cl)n1", "melting point": "121 to 123"}, {"smiles": "CCCc1c(OCCCCCOc2ccccc2/C=C/C(=O)O)ccc2c1OCCC2=O", "melting point": "123 to 126"}, {"smiles": "CCN(CC)CCOc1ccc(Nc2ncc3c(n2)NC(=O)N(c2c(Cl)cccc2Cl)C3)cc1", "melting point": 248}, {"smiles": "Cc1oc(-c2ccccc2)nc1COc1ccc(COc2ccc(OCc3ccccc3)cc2CC#N)cc1", "melting point": "130 to 131"}, {"smiles": "Cc1ccc(C(=O)O)c(S(C)(=O)=O)c1", "melting point": 174}, {"smiles": "Cc1c(O[Si](C)(C)C(C)(C)C)cc(N2C(=O)c3ccccc3C2=O)cc1C(=O)OCc1ccc([N+](=O)[O-])cc1", "melting point": "125 to 127"}, {"smiles": "CCc1c(NC(=O)OC(C)(C)C)cccc1NC(=O)c1ccc(Br)cc1", "melting point": "181 to 183"}, {"smiles": "CCCN1N=C(c2ccc(F)cc2)c2cc(Cl)ccc2CS1(=O)=O", "melting point": 122}, {"smiles": "COc1ccc(CNC(=O)c2cc([N+](=O)[O-])ccc2NC2CC=CCC2)cc1F", "note": "(stereo not drawn)", "melting point": 140}, {"smiles": "N#CCc1cccc2oc(Br)c(-c3ccccc3)c12", "melting point": "131 to 133"}, {"smiles": "CNNC(=O)c1ccc(C(=O)NNC)cc1", "melting point": "240 to 241"}]}]}
